The values that follow are results of earlier work, collected in PubChem BioAssay AID1259409 (Chemical Carcinogenesis Research Information System (CCRIS), 2018).

The series has as its system rodent chemically induced tumor inhibition, incidence and multiplicity. The experiment in a line: CCRIS tumor inhibitor studies. The settings on record: Dose [Inhibitor]: 0.

As for `CCCCCN(CCCCC)C(=O)C(CCC(=O)O)NC(=O)c1ccc(Cl)c(Cl)c1` (stereo unspecified), the “tumour outcome (control, treated, inhibition, significance)” value (Carcinogen: 7,12-DIMETHYLBENZ[A]ANTHRACENE, 57-97-6, 12 MG/KG 2/D FOR 15 D POST CARCINOGEN TREATMENT (STUDY DURATION: 6 MO), Route [Inhibitor]: SUBCUTANEOUS, Species: RAT, Strain/Sex: SPRAGUE-DAWLEY/MALE, Target Tissue: Type of Lesion: PANCREAS: CARCINOMA, Dose [Carcinogen]: 2-3 MG ONCE, Promoter: CAERULEIN, 17650-98-5) was 11/15 (73%), 7/15 (47%), 36%, p<0.02; the “tumour outcome (control, treated, inhibition, significance)” value (Carcinogen: AZASERINE, 115-02-6, 12 MG/KG BW 1/D 3 D/WK FOR 8 MO BEGINNING 4 MO POST FIRST CARCINOGEN DOSE (STUDY DURATION: 8 MO), Route [Inhibitor]: SUBCUTANEOUS, Species: RAT, Strain/Sex: WISTAR/MALE, Target Tissue: Type of Lesion: PANCREAS: TUMOR, Dose [Carcinogen]: 30 MG/KG ON DAYS 19, 26, AND 54 OF AGE, Promoter: CHOLECYSTOKININ, 9011-97-6) is reported as 19/34 (56%), 15/35 (43%), 23%, not significant; the “tumour outcome (control, treated, inhibition, significance)” value (Carcinogen: AZASERINE, 115-02-6, 12 MG/KG BW 1/D 30 MIN PRIOR TO PROMOTER DOSE 3 D/WK FOR 8 MO BEGINNING 4 MO POST FIRST CARCINOGEN DOSE (STUDY DURATI, Route [Inhibitor]: SUBCUTANEOUS, Species: RAT, Strain/Sex: WISTAR/MALE, Target Tissue: Type of Lesion: PANCREAS: TUMOR, Dose [Carcinogen]: 30 MG/KG ON DAYS 19, 26, AND 54 OF AGE, Promoter: BOMBESIN, 31362-50-2) is recorded as 28/37 (76%), 18/32 (56%), 26%, not significant.
Consider `COc1cc(C[C@@H](CO)[C@H](CO)Cc2ccc(O)c(OC)c2)ccc1O`, for which the “tumour outcome (control, treated, inhibition, significance)” value (Carcinogen: 7,12-DIMETHYLBENZ[A]ANTHRACENE, 57-97-6, 1.5 MG IN 1 ML OF DISTILLED WATER 1/D FOR 20 WK BEGINNING 1 WK POST CARCINOGEN DOSE (STUDY DURATION: 21 WK), Route [Inhibitor]: GAVAGE, Species: RAT, Strain/Sex: SPRAGUE-DAWLEY/FEMALE, Target Tissue: Type of Lesion: MAMMARY GLAND: TUMOR, Dose [Carcinogen]: 5 MG IN 1 ML CORN OIL ONCE, Promoter: NONE USED) was 26/30 (87%), 23/30 (77%), 11%, not significant.
For the compound `COc1ccc2cc(CCC(C)=O)ccc2c1`, under “Carcinogen: N-METHYL-N-NITROSOUREA, 684-93-5, 0.03% IN DIET FOR 24 WK BEGINNING 1 WK POST CARCINOGEN DOSE (STUDY DURATION: 25 WK), Route [Inhibitor]: ORAL, Species: RAT, Strain/Sex: SPRAGUE-DAWLEY/FEMALE, Target Tissue: Type of Lesion: MAMMARY GLAND: TUMOR, Dose [Carcinogen]: 50 MG/KG ONCE, Promoter: NONE USED”, the “tumour outcome (control, treated, inhibition, significance)” value is 24/30 (80%), 13/31 (42%), 48%, p<0.005.
With `COc1cc(C2OCC3C(c4ccc5c(c4)OCO5)OCC23)ccc1O` (stereo unspecified), where the note is “Carcinogen: 7,12-DIMETHYLBENZ[A]ANTHRACENE, 57-97-6, 85 NMOL IN 0.1 ML ACETONE 2/WK FOR 20 WK APPLIED 1 HR PRIOR TO EACH PROMOTER DOSE (STUDY DURATION: 20 WK), Route [Inhibitor]: DERMAL, Species: MOUSE, Strain/Sex: ICR/FEMALE, Target Tissue: Type of Lesion: SKIN: PAPILLOMA, Dose [Carcinogen]: 100 UG IN 0.1 ML ACETONE ONCE, Promoter: 12-O-TETRADECANOYLPHORBOL-13-ACETATE, 16561-29-8”, the “tumour outcome (control, treated, inhibition, significance)” value was 100%, 80%, 20%, not calculated.
